The source of these data is paper PMC2376372, “3-Bromophenyl 6-acetoxymethyl-2-oxo-2H-1-benzopyran-3-carboxylate inhibits cancer cell invasion in vitro and tumour growth in vivo” (British Journal of Cancer, 2003).

For one assay, the target named is T1, MMP-2 (Homo sapiens, UniProt P08253).
T1 construct: purchased Calbiochem
T1 sequence (P08253 110-660): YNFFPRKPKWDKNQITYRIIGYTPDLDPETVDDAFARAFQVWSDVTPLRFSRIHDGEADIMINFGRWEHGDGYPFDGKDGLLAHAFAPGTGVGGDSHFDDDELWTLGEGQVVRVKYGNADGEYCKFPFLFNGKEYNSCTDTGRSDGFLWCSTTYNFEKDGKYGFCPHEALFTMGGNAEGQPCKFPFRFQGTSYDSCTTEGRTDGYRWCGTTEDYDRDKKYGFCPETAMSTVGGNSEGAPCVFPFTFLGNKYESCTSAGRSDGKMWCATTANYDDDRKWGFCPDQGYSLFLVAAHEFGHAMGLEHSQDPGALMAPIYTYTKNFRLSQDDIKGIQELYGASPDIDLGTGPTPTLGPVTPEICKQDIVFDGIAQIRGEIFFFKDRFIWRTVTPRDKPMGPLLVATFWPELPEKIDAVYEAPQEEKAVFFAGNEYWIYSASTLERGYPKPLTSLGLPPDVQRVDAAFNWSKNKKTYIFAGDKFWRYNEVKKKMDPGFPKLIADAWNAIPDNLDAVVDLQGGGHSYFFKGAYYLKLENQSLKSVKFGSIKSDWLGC
Briefly: Inhibition of purified MMP-2. The class given is biochemical. The following applies: purified enzyme, pH 7.5, 25°C. The procedure:
(§1) Bovine α-CT and LMW-uPA (MW=33 000 Da) were purchased from Sigma, HMW-uPA (MW=54 000 Da) from Choay, trypsin (TRY) and THR from Boehringer-Indelheim (Germany), and MMP-2 and MMP-9 from Calbiochem. Human leucocyte elastase and PM were from Elastase Products Co. and Biogenic, respectively. Except for THR, HMW-uPA, MMP-2 and MMP-9, enzyme concentrations were determined by active-site titrations using the appropriate titrant ([Bender et al, 1966]; [Chase and Shaw, 1970]; [Powers and Gupton, 1977]). Several enzymes were assayed spectrophotometrically at 405 nm using the following p-nitroanilide substrates: succininyl-Ala2-Pro-Phe-p-nitroanilide (Suc-AAPF-p-NA), benzoyl-Arg-p-nitroanilide (Bz-R-p-NA) and methoxysuccinyl-Ala2-Pro-Val-p-nitroanilide (MeO-Suc-AAPV-p-NA) for α-CT, TRY and HLE, respectively (obtained from Sigma); or S-2238 ([…]), S-2444 (<Glu-Gly-Arg-p-nitroanilide) and S-2251 (H-D-Val-Leu-Lys-p-nitroanilide) for THR, HMW- and LMW-uPA, and PM, respectively (from Biogenic). Matrix metalloprotease-2 previously activated by treatment with APMA were assayed at 412 nm with the thiopeptide Ac-Pro-Leu-Gly-^Sleu-Leu-Gly-Oet in the presence of 5,5′-dithiobis(2-nitrobenzenic) acid (DTNB). […]

Another assay addresses T2, HMW-uPA (Homo sapiens, UniProt P00749).
T2 construct: purchased Choay
Briefly: Inhibition of purified HMW-uPA. The following applies: purified enzyme, pH 7.5, 25°C. Format: biochemical. The procedure: as §1

The test system of a further assay is HMW- and LMW-uPA. Put plainly: Plasminogen zymography of HT1080 conditioned medium. The class given is biochemical, human. To be noted: 1–100 μM in HT1080 conditioned medium. The procedure: The culture medium of human fibrosarcoma HT1080 cells (DMEM) was removed and concentrated 20-fold in a Vivaspin 6 ml concentrator. It was incubated for 30 min at ambient temperature in nonreducing sample buffer and run under Laemmli conditions ([Laemmli, 1970]) by loading a volume of 25 μl onto 7.5% polyacrylamide gels containing 0.1% sodium dodecyl sulphate (SDS), 2 mg ml^−1 casein and 0.16 μM human plasminogen. Following electrophoresis, gels were incubated for 1 h in 2.5% (v v^−1) Triton X-100 for removal of SDS and then for 1 h at 37°C in 50 mM Tris-HCl, 0.1 M NaCl, pH 7.6. Plasminogen activator (PA) activity was visualised as clear bands of lysis upon staining with 0.1% Coomassie blue R250. Purified human high-molecular-weight two-chain urokinase plasminogen activator (HMW-uPA) and low-molecular-weight urokinase plasminogen activator (LMW-uPA) were run in each gel as positive controls. An analogous protocol was followed to detect enzymatic activities towards MMP-2 and MMP-9 except that the 7% SDS–PAGE contained 1 mg ml^−1 bovine gelatin. The gels were incubated at 37°C for about 18 h in 5 mM Tris, pH 7.6 containing 0.2 M NaCl, 5 mM CaCl2 and 0.02 (w v^−1) Brij35. Protein staining was performed during 1 h with a 0.25% solution of Coomassie brillant blue R250 in 50% methanol and 7% acetic acid and destaining in a solution of 20% methanol and […]. […]

As for `CC(=O)OCc1ccc2oc(=O)c(C(=O)Oc3cccc(Cl)c3)cc2c1` [compound 4, 3-chlorophenyl 6-acetoxymethyl-2-oxo-2H-1-benzopyran-3-carboxylate], the “inhibition of MMP-2” value on MMP-2 is “not affected”. Further, the “inhibition of HMW-uPA” value against HMW-uPA is “not affected”. In the assay with HMW- and LMW-uPA, the “effect on HMW- and LMW-uPA activities of conditioned culture medium (plasminogen zymography)” value is given as “did not abrogate”.

As to `CC(=O)OCc1ccc2oc(=O)c(C(=O)Oc3cccc(Br)c3)cc2c1` [compound 7, 3-bromophenyl 6-acetoxy-methyl-2-oxo-2H-1-benzopyran-3-carboxylate], at MMP-2, the “inhibition of MMP-2” value is listed as “not affected”. For the same compound, the “inhibition of HMW-uPA” value at HMW-uPA was “not affected”. In addition, the “effect on HMW- and LMW-uPA activities of conditioned culture medium (plasminogen zymography)” value in the assay with HMW- and LMW-uPA is listed as “did not abrogate”.
